Test results reported in patent US10065970B2 (Genentech, Inc., priority 2015, dated 2018).
Like-named read-outs stand apart in the source and are kept apart here.

Target: PI3Kα (alpha) (Homo sapiens (Human), UniProt P42336)
Assay: p110α (alpha) PI3K Binding Assay (ADP-Glo lipid kinase reaction)
Assay type: biochemical
Conditions: read-out: PI3Kα-(alpha) ATP (Ki) micromolar
Procedure, shortened: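 Enzyme with PIP2:3PS lipid substrate and ATP/MgCl2 in 50 mM HEPES, 50 mM NaCl, 3 mM MgCl2, 0.01% BSA, 1% DMSO, 120 min at room temperature. ADP formed detected by ADP-Glo luminescence. Ki from 10-point dose-response curves via the Morrison equation.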

[1] = PI3K alpha 0.2 nM, ATP 40 μM, PIP2:3PS 50 μM, 120 min, room temperature, Ki by Morrison Equation

Chain of PI3Kα (alpha) (P42336 whole entry): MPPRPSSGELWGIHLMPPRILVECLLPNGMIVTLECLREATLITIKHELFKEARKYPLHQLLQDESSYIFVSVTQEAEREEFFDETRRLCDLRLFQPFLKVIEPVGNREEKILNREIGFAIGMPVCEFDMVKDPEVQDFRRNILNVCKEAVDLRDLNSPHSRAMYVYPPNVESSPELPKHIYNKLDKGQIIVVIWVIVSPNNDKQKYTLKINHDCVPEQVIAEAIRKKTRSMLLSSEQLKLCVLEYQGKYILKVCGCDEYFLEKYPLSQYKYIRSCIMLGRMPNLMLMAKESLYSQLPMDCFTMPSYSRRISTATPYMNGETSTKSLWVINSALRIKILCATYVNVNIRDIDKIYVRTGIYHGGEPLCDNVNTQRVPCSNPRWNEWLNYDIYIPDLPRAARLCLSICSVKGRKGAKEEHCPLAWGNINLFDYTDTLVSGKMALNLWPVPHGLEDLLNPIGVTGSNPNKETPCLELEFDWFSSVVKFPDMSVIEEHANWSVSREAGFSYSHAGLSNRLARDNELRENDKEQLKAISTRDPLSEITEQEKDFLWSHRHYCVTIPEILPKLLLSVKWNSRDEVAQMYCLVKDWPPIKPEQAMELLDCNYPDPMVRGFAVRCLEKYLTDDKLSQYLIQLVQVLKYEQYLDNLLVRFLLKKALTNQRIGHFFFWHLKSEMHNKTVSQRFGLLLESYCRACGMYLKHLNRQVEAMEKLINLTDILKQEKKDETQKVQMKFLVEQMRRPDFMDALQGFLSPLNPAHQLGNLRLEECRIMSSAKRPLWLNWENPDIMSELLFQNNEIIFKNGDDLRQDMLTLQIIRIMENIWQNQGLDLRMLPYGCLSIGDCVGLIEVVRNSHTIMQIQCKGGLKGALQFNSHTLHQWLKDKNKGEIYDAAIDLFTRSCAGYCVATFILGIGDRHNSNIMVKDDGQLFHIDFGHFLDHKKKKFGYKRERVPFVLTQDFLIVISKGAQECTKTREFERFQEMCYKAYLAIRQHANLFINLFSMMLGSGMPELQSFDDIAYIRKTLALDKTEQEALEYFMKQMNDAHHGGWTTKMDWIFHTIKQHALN
Chain of PI3Kα (alpha) (P27986 whole entry partner): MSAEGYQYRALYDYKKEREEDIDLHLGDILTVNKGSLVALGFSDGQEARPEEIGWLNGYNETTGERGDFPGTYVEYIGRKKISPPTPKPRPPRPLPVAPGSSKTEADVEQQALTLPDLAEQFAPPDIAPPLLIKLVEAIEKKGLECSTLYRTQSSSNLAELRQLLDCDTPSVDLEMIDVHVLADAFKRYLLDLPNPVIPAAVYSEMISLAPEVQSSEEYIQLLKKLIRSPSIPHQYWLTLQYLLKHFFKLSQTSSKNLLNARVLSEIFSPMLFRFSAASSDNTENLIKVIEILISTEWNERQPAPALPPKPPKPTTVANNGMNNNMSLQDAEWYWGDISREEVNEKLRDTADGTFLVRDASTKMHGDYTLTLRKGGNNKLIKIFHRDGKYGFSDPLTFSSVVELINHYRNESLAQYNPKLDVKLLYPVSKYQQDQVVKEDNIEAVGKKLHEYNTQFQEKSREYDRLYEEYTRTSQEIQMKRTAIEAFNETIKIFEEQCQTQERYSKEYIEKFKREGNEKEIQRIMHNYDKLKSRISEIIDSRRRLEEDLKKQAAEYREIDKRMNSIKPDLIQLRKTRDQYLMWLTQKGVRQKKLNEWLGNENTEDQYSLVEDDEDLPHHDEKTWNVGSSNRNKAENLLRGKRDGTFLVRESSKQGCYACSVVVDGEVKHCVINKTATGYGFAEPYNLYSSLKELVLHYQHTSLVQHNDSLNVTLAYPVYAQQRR

Ki [1] | Ki | SMILES
< 0.02 nM | – | C[C@H](Oc1cc2c3c(c1)nc(-c1ccc4nc(N)cnc4c1)n3CCCCO2)C(N)=O [Example 244, (S)-2-((1-(2-Aminoquinoxalin-6-yl)-7,8,9,10-tetrahydro-6-oxa-2,10a-diazacycloocta[cd]inden-4-yl)oxy)propanamide]
0.032 nM | – | C[C@@H](Oc1cc2c3c(c1)nc(-c1ccc4oc(N)nc4c1)n3CCCCO2)C(N)=O [Example 245, (R)-2-((1-(2-Aminobenzo[d]oxazol-5-yl)-7,8,9,10-tetrahydro-6-oxa-2,10a-diazacycloocta[cd]inden-4-yl)oxy)propanamide]
< 0.02 nM | – | NC(=O)[C@@H](Nc1cc2c3c(c1)nc(-c1ccc4sc(N)nc4c1)n3CCCCO2)C1CC1 [Example 246, (S)-2-((1-(2-Aminobenzo[d]thiazol-5-yl)-7,8,9,10-tetrahydro-6-oxa-2,10a-diazacycloocta[cd]inden-4-yl)amino)-2-cyclopropylacetamide]
– | 0.024 nM | NC(=O)[C@@H]1CCCN1c1cc2c3c(nc(-c4ccc5oc(N)nc5c4)n3CCCCO2)c1F [Example 247, (S)-1-(1-(2-Aminobenzo[d]oxazol-5-yl)-3-fluoro-7,8,9,10-tetrahydro-6-oxa-2,10a-diazacycloocta[cd]inden-4-yl)pyrrolidine-2-carboxamide]
0.03 nM | – | C[C@H](Oc1cc2c3c(c1)nc(-c1ccc4nc(N)sc4c1)n3CCCCO2)C(N)=O [Example 248, (S)-2-((1-(2-Aminobenzo[d]thiazol-6-yl)-7,8,9,10-tetrahydro-6-oxa-2,10a-diazacycloocta[cd]inden-4-yl)oxy)propanamide]
< 0.02 nM | – | C[C@H](Oc1cc2c3c(c1)nc(-c1cc(F)c4oc(N)nc4c1)n3CCCCO2)C(N)=O [Example 249, (S)-2-((1-(2-Amino-7-fluorobenzo[d]oxazol-5-yl)-7,8,9,10-tetrahydro-6-oxa-2,10a-diazacycloocta[cd]inden-4-yl)oxy)propanamide]
< 0.02 nM | – | NC(=O)[C@@H]1CCCN1c1cc2c3c(c1)nc(-c1ccc4oc(N)nc4c1)n3CCCCO2 [Example 250, (S)-1-(1-(2-Aminobenzo[d]oxazol-5-yl)-7,8,9,10-tetrahydro-6-oxa-2,10a-diazacycloocta[cd]inden-4-yl)pyrrolidine-2-carboxamide]
2.27 nM | – | C[C@@H]1Cn2c(-c3ccc4oc(N)nc4c3)nc3cc(O[C@H](C)C(N)=O)cc(c32)O1 [Example 251, (R)-2-(((R)-2-(2-Aminobenzo[d]oxazol-5-yl)-4-methyl-3,4-dihydro-5-oxa-1,2a-diazaacenaphthylen-7-yl)oxy)propanamide]
0.221 nM | – | C[C@@H]1Cn2c(-c3ccc4oc(N)nc4c3)nc3cc(O[C@@H](C)C(N)=O)cc(c32)O1 [Example 252, (S)-2-(((R)-2-(2-Aminobenzo[d]oxazol-5-yl)-4-methyl-3,4-dihydro-5-oxa-1,2a-diazaacenaphthylen-7-yl)oxy)propanamide]
< 0.02 nM | – | C[C@@H](C(N)=O)N(C)c1cc2c3c(c1)nc(-c1ccc4oc(N)nc4c1)n3CCCCO2 [Example 254, (S)-2-((1-(2-Aminobenzo[d]oxazol-5-yl)-7,8,9,10-tetrahydro-6-oxa-2,10a-diazacycloocta[cd]inden-4-yl)(methyl)amino)propanamide]
0.149 nM | – | C[C@@H](C(N)=O)N(C)c1cc2c3c(c1)nc(-c1ccc4nc(N)sc4c1)n3CCCCO2 [Example 255, (S)-2-((1-(2-Aminobenzo[d]thiazol-6-yl)-7,8,9,10-tetrahydro-6-oxa-2,10a-diazacycloocta[cd]inden-4-yl)(methyl)amino)propanamide]
0.09 nM | – | C[C@H](Oc1cc2c3c(c1)nc(-c1cc(F)c4oc(N)nc4c1)n3CCCO2)C(N)=O [Example 258, (S)-2-((1-(2-Amino-7-fluorobenzo[d]oxazol-5-yl)-8,9-dihydro-7H-6-oxa-2,9a-diazabenzo[cd]azulen-4-yl)oxy)propanamide]
< 0.02 nM | – | C[C@H](Oc1cc2c3c(c1)nc(-c1cc(F)c4oc(N)nc4c1F)n3CCCCO2)C(N)=O [Example 261, (S)-2-((1-(2-Amino-4,7-difluorobenzo[d]oxazol-5-yl)-7,8,9,10-tetrahydro-6-oxa-2,10a-diazacycloocta[cd]inden-4-yl)oxy)propanamide]
1.95 nM | – | NC(=O)[C@@H]1COCCN1c1cc2c3c(c1)nc(-c1ccc4nc(N)sc4c1)n3CCCCO2 [Example 262, (S)-4-(1-(2-Aminobenzo[d]thiazol-6-yl)-7,8,9,10-tetrahydro-6-oxa-2,10a-diazacycloocta[cd]inden-4-yl)morpholine-3-carboxamide]
0.346 nM | – | C[C@@H](Oc1cc2c3c(c1)nc(-c1cc(F)c4oc(N)nc4c1)n3CCCO2)C(N)=O [Example 263, (R)-2-((1-(2-Amino-7-fluorobenzo[d]oxazol-5-yl)-8,9-dihydro-7H-6-oxa-2,9a-diazabenzo[cd]azulen-4-yl)oxy)propanamide]
< 0.02 nM | – | C[C@@H](C(N)=O)N(C)c1cc2c3c(c1)nc(-c1cc(F)c4oc(N)nc4c1)n3CCCCO2 [Example 264, (S)-2-((1-(2-Amino-7-fluorobenzo[d]oxazol-5-yl)-7,8,9,10-tetrahydro-6-oxa-2,10a-diazacycloocta[cd]inden-4-yl)(methyl)amino)propanamide]
< 0.02 nM | – | C[C@H](Oc1cc2c3c(c1)nc(-c1ccc4nc(N)sc4n1)n3CCCCO2)C(N)=O [Example 265, (S)-2-((1-(2-Aminothiazolo[5,4-b]pyridin-5-yl)-7,8,9,10-tetrahydro-6-oxa-2,10a-diazacycloocta[cd]inden-4-yl)oxy)propanamide]
0.108 nM | – | C[C@H](Oc1cc2c3c(c1)nc(-c1ccc4oc(N)nc4n1)n3CCCO2)C(N)=O [Example 266, (S)-2-((1-(2-Aminooxazolo[4,5-b]pyridin-5-yl)-8,9-dihydro-7H-6-oxa-2,9a-diazabenzo[cd]azulen-4-yl)oxy)propanamide]
< 0.02 nM | – | C[C@H](Oc1cc2c3c(c1)nc(-c1ccc(-c4nc[nH]n4)c(F)c1)n3CCCCO2)C(N)=O [Example 269, (S)-2-((1-(3-Fluoro-4-(1H-1,2,4-triazol-3-yl)phenyl)-7,8,9,10-tetrahydro-6-oxa-2,10a-diazacycloocta[cd]inden-4-yl)oxy)propanamide]
< 0.02 nM | – | CC[C@H](Oc1cc2c3c(c1)nc(-c1ccc4oc(N)nc4c1)n3CCCCO2)C(N)=O [Example 271, (S)-2-((1-(2-Aminobenzo[d]oxazol-5-yl)-7,8,9,10-tetrahydro-6-oxa-2,10a-diazacycloocta[cd]inden-4-yl)oxy)butanamide]
< 0.02 nM | – | CC[C@H](Oc1cc2c3c(c1)nc(-c1cc(F)c4oc(N)nc4c1)n3CCCCO2)C(N)=O [Example 272, (S)-2-((1-(2-Amino-7-fluorobenzo[d]oxazol-5-yl)-7,8,9,10-tetrahydro-6-oxa-2,10a-diazacycloocta[cd]inden-4-yl)oxy)butanamide]
0.0494 nM | – | CC[C@H](Oc1cc2c3c(c1)nc(-c1cc(F)c4nc(N)sc4c1)n3CCCCO2)C(N)=O [Example 273, (S)-2-((1-(2-Amino-4-fluorobenzo[d]thiazol-6-yl)-7,8,9,10-tetrahydro-6-oxa-2,10a-diazacycloocta[cd]inden-4-yl)oxy)butanamide]
2.1 nM | – | C[C@H](Oc1cc2c3c(c1)nc(-c1ccc4nc(N)sc4c1)n3CCCO2)C(N)=O [Example 274, (S)-2-((1-(2-Aminobenzo[d]thiazol-6-yl)-8,9-dihydro-7H-6-oxa-2,9a-diazabenzo[cd]azulen-4-yl)oxy)propanamide]
0.062 nM | – | C[C@H](Oc1cc2c3c(c1)nc(-c1cc(F)c4sc(N)nc4c1)n3CCCCO2)C(N)=O [Example 285, (S)-2-((1-(2-Amino-7-fluorobenzo[d]thiazol-5-yl)-7,8,9,10-tetrahydro-6-oxa-2,10a-diazacycloocta[cd]inden-4-yl)oxy)propanamide]
0.024 nM | – | C[C@H](Oc1cc2c3c(c1)nc(-c1ccc4nc(N)nnc4c1)n3CCCCO2)C(N)=O [Example 292, (S)-2-((1-(3-Aminobenzo[e][1,2,4]triazin-7-yl)-7,8,9,10-tetrahydro-6-oxa-2,10a-diazacycloocta[cd]inden-4-yl)oxy)propanamide]
0.0222 nM | – | C[C@H](Oc1cc2c3c(c1)nc(-c1ccc(-c4ncn[nH]4)cc1F)n3CCCCO2)C(N)=O [Example 293, (S)-2-((1-(2-Fluoro-4-(1H-1,2,4-triazol-3-yl)phenyl)-7,8,9,10-tetrahydro-6-oxa-2,10a-diazacycloocta[cd]inden-4-yl)oxy)propanamide]
< 0.02 nM | – | NC(=O)[C@@H]1[C@@H](F)CCN1c1cc2c3c(c1)nc(-c1ccc4oc(N)nc4c1)n3CCCCO2 [Example 294, (2R,3S)-1-(1-(2-Aminobenzo[d]oxazol-5-yl)-7,8,9,10-tetrahydro-6-oxa-2,10a-diazacycloocta[cd]inden-4-yl)-3-fluoropyrrolidine-2-carboxamide]
0.053 nM | – | CC[C@H](Oc1cc2c3c(c1)nc(-c1cc(F)c(-c4ncn[nH]4)cc1F)n3CCCCO2)C(N)=O [Example 295, (S)-2-((1-(2,5-Difluoro-4-(1H-1,2,4-triazol-5-yl)phenyl)-7,8,9,10-tetrahydro-6-oxa-2,10a-diazacycloocta[cd]inden-4-yl)oxy)butanamide]
< 0.02 nM | – | C[C@H](Oc1cc2c3c(c1)nc(-c1ccc(-c4ncn[nH]4)cn1)n3CCCCO2)C(N)=O [Example 296, (S)-2-((1-(5-(1H-1,2,4-Triazol-5-yl)pyridin-2-yl)-7,8,9,10-tetrahydro-6-oxa-2,10a-diazacycloocta[cd]inden-4-yl)oxy)propanamide]
2.23 nM | – | C[C@H](Oc1cc2c3c(c1)nc(-c1ccc4oc(N)nc4c1)n3CCCCO2)C(=O)O [Example 297, (S)-2-((1-(2-Aminobenzo[d]oxazol-5-yl)-7,8,9,10-tetrahydro-6-oxa-2,10a-diazacycloocta[cd]inden-4-yl)oxy)propanoic acid]

SMILES | Ki [1] | Ki
Nc1nc2cc(-n3nc4cc(Br)cc5c4c3CCCO5)ccc2o1 [Example 253, 5-(4-Bromo-8,9-dihydrooxepino[4,3,2-cd]indazol-1(7H)-yl)benzo[d]oxazol-2-amine] | 50.8 nM | –
